Measured values reported in paper PMC2642990, “The Glycogen-Binding Domain on the AMPK β Subunit Allows the Kinase to Act as a Glycogen Sensor” (Cell Metabolism, 2009).

Assays:
native rat liver AMPK = native rat liver AMPK (Rattus norvegicus, UniProt P80386); assay: AMPK kinase assay (SAMS peptide), native rat liver AMPK in solution; assay type: biochemical; conditions: up to 100 mM
Description: We next tested the effect of glycogen on the activity of the native AMPK complex purified from rat liver ([Hawley et al., 1996]). […] The bovine liver glycogen inhibited AMPK completely with an IC50 (concentration causing half-maximal inhibition) of 30 ± 9 mM glucose equivalents (Figure 2A).
(§1) Figure 2 Allosteric Inhibition of AMPK by Different Glycogen Preparations (A) Concentration dependence of inhibition of native rat liver AMPK by preparations of bovine and rat liver glycogen; glycogen concentrations expressed as glucose produced after total hydrolysis. Data were fitted to an IC50 equation (see Supplemental Experimental Procedures), and curves were generated using the estimated best-fit parameters. (B) Concentration dependence of inhibition of native rat liver AMPK by bovine liver glycogen in the presence and absence of 200 μM AMP; curves were generated as in (A). (C) Inhibition by bovine liver glycogen of recombinant AMPK complex (myc-α1:β1:γ1) containing full-length (1–270) or truncated β1 subunit lacking the GBD (172–270). Complexes were expressed in CCL13 cells and purified by immunoprecipitation prior to assay with or without glycogen (200 mM glucose equivalents). Data are means ± SEM (n = 3). ^∗Activity different from control without glycogen by t test (p < 0.05). (D) Inhibition by bovine liver glycogen (200 mM glucose equivalents) of purified, native rat liver AMPK (a mixture of α1β1γ1 and α2β1γ1 complexes) that had been recovered by immunoprecipitation (IP) using anti-α1, anti-α2, or a mixture of anti-α1/-α2 antibodies or assayed in solution without immunoprecipitation. Results are expressed as percentages of the activity in controls without glycogen, and data are mean ± SEM (n = 3). (E) Absorption spectra of bovine and rat liver glycogen preparations in complex with iodine. […]
Purification of Native Rat Liver, AMPK, Recombinant AMPK, and AMPK Assays AMPK was purified from rat liver as far as the gel filtration step (Hawley et al., 1996). The kinase was assayed using the SAMS peptide (Davies et al., 1989). IC50 values for inhibition were estimated by fitting data using GraphPad Prism to the equation: Activity = Residual + Maximum - (Maximum × [Inhibitor]/(IC50+[Inhibitor])) where Residual is the activity in the presence of maximal inhibition, Maximum is the maximal inhibition and [inhibitor] is the concentration of the inhibitory molecule. For recombinant AMPK, constructs encoding myc-tagged α1, β1 and γ1 subunits of AMPK were co-transfected into CCL13 cells using modifications of previous methods (Woods et al., 1996). DNA (10 µg) was dissolved in sterile water (450 µl) to which 50 μl of 2.5 M CaCl2 was added, and the solution vortexed for 1 min. […]

[1] = molecular target: T1, recombinant AMPK complex (myc-α1:β1:γ1) (Rattus norvegicus, UniProt P80386); assay: recombinant wild-type AMPK expressed in CCL13 cells, assayed in anti-myc immunoprecipitates; assay type: biochemical; conditions: 2 mM; Figure 6C
T1 construct: recombinant AMPK complex (myc-α1:β1:γ1) containing full-length (1–270) or truncated β1 subunit lacking the GBD (172–270); made in house; host or cells: human CCL13 cells, co-transfected; isolated by anti-myc immunoprecipitation
Source text: as §1, with “(D) Inhibition by bovine liver glycogen (200 mM glucose equivalents) of purified, native rat liver AMPK (a mixture of α1β1γ1 and α2β1γ1 complexes) that had been recovered by immunoprecipitation (IP) using anti-α1, anti-α2, or a mixture of anti-α1/-α2 antibodies or assayed in solution without immunoprecipitation.” left out, “3).” for “3). (E) Absorption spectra of bovine and rat liver glycogen preparations in complex with iodine.”

[2] = molecular target: bacterially expressed rat β1 GBD; design: method as in Koay et al. (2007); conditions: NMR method; ref Koay et al. (2007); read-out: KD for binding to rat β1 GBD; cited from earlier work
[3] = molecular target: T2, recombinant α1β1γ1 complex with β1 GBD mutations (W100G/W133A and others) (Rattus norvegicus, UniProt P80386, W100G/W133A); assay: recombinant AMPK with GBD point mutations in β1, assayed in immunoprecipitates; assay type: biochemical; conditions: 2 mM; Figure 4B
T2 construct: we made mutations in full-length β1 coexpressed with α1 and γ1 in CCL13 cells; made in house; host or cells: human CCL13 cells, co-transfected; isolated by anti-myc immunoprecipitation
Source text: To test whether mutations that interfered with the binding of glycogen to the GBD also affected inhibition of AMPK by glycogen, we made mutations in full-length β1 coexpressed with α1 and γ1 in CCL13 cells, isolated the complex by immunoprecipitation via the myc tag on α1, and assayed the kinase activity in the presence and absence of glycogen. The activities were adjusted to correct for slight variation in recovery of the α1 subunit assessed by blotting (inset in Figure 3A). […] Because all of these assays were conducted in resuspended immunoprecipitates, the degree of inhibition of the wild-type was < 50%, as discussed in the previous section. […]
Figure 3 Effect of β Subunit Mutations on Inhibition of Recombinant AMPK Complexes by Glycogen (A) Myc-α1, γ1, and β1 with the wild-type sequence or the indicated mutations were expressed in CCL13 cells, immunoprecipitated, and assayed ± bovine liver glycogen (200 mM glucose equivalents); results are mean ± SEM (n = 3). […] (C) Myc-α1, γ1, and β1 with the wild-type sequence or with W100G/W133A mutations were expressed in CCL13 cells, immunoprecipitated using anti-myc (left) or anti-FLAG (right) antibodies, and analyzed by western blotting using anti-myc antibodies (top panels) or a mixture of anti-β1 and -γ1 antibodies (bottom panels). […]

rat β1 GBD = conditions: cited from earlier work; for concentration that displaces the β1 GBD from glycogen: ref Polekhina et al. (2005)
GBD = molecular target: T3, GBD (Rattus norvegicus, UniProt P80386); assay: binding of linear oligosaccharides to the GBD (data not shown)
T3 construct: The rat β1 GBD (residues 70-172 was cloned into pGEX6P2, expressed in Escherichia coli (BL21)); GST (N); made in house; host or cells: E. coli BL21 (inferred)
T3 sequence (P80386 70-172): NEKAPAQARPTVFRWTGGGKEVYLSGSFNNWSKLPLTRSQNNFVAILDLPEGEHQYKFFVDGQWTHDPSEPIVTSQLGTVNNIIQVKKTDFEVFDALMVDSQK

native rat liver AMPK, sequence (P80386 2-270): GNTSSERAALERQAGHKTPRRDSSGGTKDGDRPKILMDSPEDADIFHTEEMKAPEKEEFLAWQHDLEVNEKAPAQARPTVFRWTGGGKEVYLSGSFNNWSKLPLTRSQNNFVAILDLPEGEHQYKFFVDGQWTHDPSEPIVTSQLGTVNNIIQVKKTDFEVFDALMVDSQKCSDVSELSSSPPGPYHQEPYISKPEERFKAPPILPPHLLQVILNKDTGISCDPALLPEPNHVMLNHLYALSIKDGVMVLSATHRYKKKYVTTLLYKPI
native rat liver AMPK, sequence (P54645 whole entry partner): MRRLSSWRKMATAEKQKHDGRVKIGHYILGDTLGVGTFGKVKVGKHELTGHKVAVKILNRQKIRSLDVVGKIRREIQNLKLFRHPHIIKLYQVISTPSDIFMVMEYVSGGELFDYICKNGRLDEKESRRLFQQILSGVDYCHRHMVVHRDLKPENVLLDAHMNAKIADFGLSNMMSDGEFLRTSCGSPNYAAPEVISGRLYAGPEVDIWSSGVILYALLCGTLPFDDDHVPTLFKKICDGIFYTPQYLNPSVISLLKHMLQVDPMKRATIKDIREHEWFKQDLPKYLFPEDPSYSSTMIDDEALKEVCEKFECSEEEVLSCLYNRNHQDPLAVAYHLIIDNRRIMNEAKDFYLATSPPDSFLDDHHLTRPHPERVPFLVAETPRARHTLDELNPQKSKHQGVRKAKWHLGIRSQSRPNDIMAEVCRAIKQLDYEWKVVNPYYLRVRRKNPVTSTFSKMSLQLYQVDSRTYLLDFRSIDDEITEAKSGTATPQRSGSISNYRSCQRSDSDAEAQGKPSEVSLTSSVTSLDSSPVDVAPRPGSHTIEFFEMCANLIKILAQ
native rat liver AMPK, sequence (Q09137 whole entry partner): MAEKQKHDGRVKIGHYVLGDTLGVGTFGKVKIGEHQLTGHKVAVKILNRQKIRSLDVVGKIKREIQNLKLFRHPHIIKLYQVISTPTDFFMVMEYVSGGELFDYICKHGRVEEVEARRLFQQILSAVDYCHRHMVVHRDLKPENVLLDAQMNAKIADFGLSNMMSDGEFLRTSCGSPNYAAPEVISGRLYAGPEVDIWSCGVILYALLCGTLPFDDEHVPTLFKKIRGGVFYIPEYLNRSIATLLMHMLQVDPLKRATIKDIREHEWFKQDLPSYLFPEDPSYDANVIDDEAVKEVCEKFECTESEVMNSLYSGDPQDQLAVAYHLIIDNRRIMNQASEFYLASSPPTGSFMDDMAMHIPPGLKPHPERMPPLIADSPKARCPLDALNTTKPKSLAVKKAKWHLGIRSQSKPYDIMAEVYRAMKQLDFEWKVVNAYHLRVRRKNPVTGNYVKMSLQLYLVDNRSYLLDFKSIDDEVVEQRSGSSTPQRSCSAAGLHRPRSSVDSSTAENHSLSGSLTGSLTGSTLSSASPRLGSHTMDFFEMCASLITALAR
native rat liver AMPK, sequence (P80385 whole entry partner): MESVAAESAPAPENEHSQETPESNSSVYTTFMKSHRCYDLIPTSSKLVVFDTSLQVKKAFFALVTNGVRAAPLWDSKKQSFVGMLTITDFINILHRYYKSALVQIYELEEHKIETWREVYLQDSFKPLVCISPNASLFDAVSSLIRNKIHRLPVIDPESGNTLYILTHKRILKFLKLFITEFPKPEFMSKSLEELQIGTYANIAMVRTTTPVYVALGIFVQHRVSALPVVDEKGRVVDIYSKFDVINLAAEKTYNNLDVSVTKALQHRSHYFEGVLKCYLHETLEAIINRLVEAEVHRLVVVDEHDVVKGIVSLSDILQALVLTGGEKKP
T1 sequence (P80386 whole entry, the tested form may be a part): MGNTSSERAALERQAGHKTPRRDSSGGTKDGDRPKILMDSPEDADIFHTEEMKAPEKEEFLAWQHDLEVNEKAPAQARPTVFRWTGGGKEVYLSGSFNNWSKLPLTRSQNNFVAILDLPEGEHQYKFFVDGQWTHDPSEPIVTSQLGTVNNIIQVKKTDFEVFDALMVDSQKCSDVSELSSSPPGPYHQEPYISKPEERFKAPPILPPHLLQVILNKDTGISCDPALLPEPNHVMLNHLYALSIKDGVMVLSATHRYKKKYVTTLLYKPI
T1 sequence (P54645 13-559 partner limits assumed): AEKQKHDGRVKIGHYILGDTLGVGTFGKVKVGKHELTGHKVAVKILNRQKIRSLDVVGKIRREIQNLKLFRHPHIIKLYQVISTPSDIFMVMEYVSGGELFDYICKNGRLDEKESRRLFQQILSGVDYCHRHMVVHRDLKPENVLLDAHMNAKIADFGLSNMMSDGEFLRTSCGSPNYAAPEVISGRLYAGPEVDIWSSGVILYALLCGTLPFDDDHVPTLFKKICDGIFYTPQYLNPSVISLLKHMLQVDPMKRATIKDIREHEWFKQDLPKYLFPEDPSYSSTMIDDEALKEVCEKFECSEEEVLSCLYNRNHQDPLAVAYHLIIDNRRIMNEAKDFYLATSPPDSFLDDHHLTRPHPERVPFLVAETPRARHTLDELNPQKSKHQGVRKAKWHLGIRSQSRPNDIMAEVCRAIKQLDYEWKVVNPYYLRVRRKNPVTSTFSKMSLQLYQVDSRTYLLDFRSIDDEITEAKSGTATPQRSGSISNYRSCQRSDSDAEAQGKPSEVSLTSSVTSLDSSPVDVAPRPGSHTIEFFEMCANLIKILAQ
T1 sequence (P80385 whole entry partner, the tested form may be a part): as the sequence (P80385 whole entry partner) above
T2 sequence (P80386 2-270 W100G/W133A): as the sequence (P80386 2-270) above, with W99G, W132A counted along it
T2 sequence (P54645 whole entry partner): as the sequence (P54645 whole entry partner) above
T2 sequence (P80385 whole entry partner): as the sequence (P80385 whole entry partner) above

| inhibition at concentrations up to 100 mM (native rat liver AMPK) | inhibition of wild-type recombinant α1β1γ1 [1] | inhibition of W100G/W133A mutant [3] | binding to the GBD (GBD) | Compound | Kd [2] | competition with glycogen for binding to the GBD (rat β1 GBD; ref Polekhina et al. (2003, 2005)) | concentration that displaces the β1 GBD from glycogen (rat β1 GBD) |
| --- | --- | --- | --- | --- | --- | --- | --- |
|  | not significant |  |  | CO[C@H]1O[C@H](CO)[C@@H](O[C@H]2O[C@H](CO)[C@@H](O)[C@H](O)[C@H]2O)[C@H](O)[C@H]1O [Oligosaccharide 8, methyl α-maltoside] |  |  |  |
|  |  | abolished |  | OC[C@H]1O[C@@H]2O[C@H]3[C@H](O)[C@@H](O)[C@@H](O[C@H]4[C@H](O)[C@@H](O)[C@@H](O[C@H]5[C@H](O)[C@@H](O)[C@@H](O[C@H]6[C@H](O)[C@@H](O)[C@@H](O[C@H]7[C@H](O)[C@@H](O)[C@@H](O[C@H]8[C@H](O)[C@@H](O)[C@@H](O[C@H]1[C@H](O)[C@H]2O)O[C@@H]8CO)O[C@@H]7CO)O[C@@H]6CO)O[C@@H]5CO)O[C@@H]4CO)O[C@@H]3CO [β-cyclodextrin] | 300 µM | can compete |  |
| almost no inhibition |  |  | could bind | maltoheptaose | 400 µM |  | greater than 1 mM |
| almost no inhibition |  |  | could bind | maltohexaose | 700 µM |  | greater than 1 mM |

| Compound | inhibition at concentrations up to 100 mM (native rat liver AMPK) | inhibition of wild-type recombinant α1β1γ1 [1] | inhibition of W100G/W133A mutant [3] | binding to the GBD (GBD) | Kd [2] | competition with glycogen for binding to the GBD (rat β1 GBD; ref Polekhina et al. (2003, 2005)) | concentration that displaces the β1 GBD from glycogen (rat β1 GBD) |
| --- | --- | --- | --- | --- | --- | --- | --- |
| OC[C@H]1O[C@H](O[C@H]2[C@H](O)[C@@H](O)C(O)O[C@@H]2CO)[C@H](O)[C@@H](O)[C@@H]1O (mixture of isomers) [maltose] | did not cause any inhibition |  |  |  |  |  |  |
